Experimental data from ChEMBL document CHEMBL1130312, “Synthesis and receptor binding affinity of conformationally restricted retinoic acid analogues” (Bioorg Med Chem Lett, 1997).

Experiments:
[1] = target: T1, Retinoic acid receptor RXR-gamma (Homo sapiens, UniProt P48443); experiment: Binding affinity towards Retinoic acid receptor RXR-gamma by displacing 3.4 nM 3[H]-9-cis-RA; IA = Inactive
T1 sequence (P48443 whole entry): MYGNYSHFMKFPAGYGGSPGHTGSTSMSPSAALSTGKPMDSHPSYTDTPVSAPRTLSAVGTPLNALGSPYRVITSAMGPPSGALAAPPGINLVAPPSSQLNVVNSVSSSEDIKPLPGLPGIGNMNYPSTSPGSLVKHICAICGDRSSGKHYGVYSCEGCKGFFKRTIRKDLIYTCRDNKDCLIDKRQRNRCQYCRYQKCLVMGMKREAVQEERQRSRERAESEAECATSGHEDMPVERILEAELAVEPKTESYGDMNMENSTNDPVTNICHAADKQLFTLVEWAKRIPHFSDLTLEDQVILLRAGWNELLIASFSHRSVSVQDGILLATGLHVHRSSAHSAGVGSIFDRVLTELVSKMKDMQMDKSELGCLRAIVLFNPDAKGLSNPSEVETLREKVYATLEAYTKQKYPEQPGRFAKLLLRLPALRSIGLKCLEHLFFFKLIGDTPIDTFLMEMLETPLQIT

[2] = target: T2, Retinoic acid receptor beta (Homo sapiens, UniProt P10826); experiment: Binding affinity towards cRAR-beta-2 receptor by displacing 0.82 nM 3[H]-all-trans-RA; IA = Inactive
T2 sequence (P10826 whole entry): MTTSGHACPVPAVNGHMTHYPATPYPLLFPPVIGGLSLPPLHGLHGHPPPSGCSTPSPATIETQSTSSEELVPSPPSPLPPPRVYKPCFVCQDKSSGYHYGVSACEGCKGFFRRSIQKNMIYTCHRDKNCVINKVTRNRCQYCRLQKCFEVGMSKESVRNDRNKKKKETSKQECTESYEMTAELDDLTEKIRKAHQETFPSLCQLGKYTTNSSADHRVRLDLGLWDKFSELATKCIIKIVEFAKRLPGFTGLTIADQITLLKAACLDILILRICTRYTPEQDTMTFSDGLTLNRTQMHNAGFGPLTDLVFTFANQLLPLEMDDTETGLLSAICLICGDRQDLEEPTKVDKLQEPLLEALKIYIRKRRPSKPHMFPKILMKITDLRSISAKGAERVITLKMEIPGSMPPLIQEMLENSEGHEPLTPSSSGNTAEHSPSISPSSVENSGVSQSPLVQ

[3] = target: T2, Retinoic acid receptor beta; experiment: Binding affinity towards cRAR-beta-2 receptor by displacing 1.1 nM 3[H]-9-cis-RA; IA = Inactive
[4] = target: T1, Retinoic acid receptor RXR-gamma; experiment: Binding affinity towards Retinoic acid receptor RXR-gamma by displacing 3.4 nM 3[H]-9-cis-RA; No binding competition
[5] = target: T3, Retinoic acid receptor gamma (Homo sapiens, UniProt P13631); experiment: Binding affinity towards human Retinoic acid receptor gamma
T3 sequence (P13631 whole entry): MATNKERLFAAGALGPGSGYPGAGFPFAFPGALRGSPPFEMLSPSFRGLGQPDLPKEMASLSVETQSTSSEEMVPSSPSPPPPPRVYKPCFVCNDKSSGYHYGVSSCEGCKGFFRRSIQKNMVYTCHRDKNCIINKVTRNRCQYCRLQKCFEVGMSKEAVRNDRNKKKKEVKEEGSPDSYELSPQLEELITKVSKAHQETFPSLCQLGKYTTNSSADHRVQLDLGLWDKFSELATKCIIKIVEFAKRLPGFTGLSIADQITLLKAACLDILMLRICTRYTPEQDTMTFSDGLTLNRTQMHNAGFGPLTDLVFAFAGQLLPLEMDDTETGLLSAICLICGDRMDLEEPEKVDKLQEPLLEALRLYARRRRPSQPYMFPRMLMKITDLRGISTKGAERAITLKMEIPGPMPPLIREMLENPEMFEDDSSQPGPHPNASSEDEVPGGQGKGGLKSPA

[6] = target: T4, Retinoic acid receptor alpha (Homo sapiens, UniProt P10276); experiment: Binding affinity towards human Retinoic acid receptor alpha
T4 sequence (P10276 whole entry): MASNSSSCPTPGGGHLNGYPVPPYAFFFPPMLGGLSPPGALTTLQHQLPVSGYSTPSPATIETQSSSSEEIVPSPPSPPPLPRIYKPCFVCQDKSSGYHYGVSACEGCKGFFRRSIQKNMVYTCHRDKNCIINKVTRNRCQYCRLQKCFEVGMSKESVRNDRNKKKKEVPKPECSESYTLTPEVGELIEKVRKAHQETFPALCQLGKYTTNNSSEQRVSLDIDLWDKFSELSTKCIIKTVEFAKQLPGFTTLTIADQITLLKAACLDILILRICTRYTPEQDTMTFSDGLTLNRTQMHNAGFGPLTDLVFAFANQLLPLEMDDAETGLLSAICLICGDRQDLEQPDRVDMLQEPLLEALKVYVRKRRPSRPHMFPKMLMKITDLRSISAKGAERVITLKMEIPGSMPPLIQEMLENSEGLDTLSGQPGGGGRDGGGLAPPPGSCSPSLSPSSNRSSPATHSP

[7] = target: T1, Retinoic acid receptor RXR-gamma; experiment: Binding affinity towards Retinoic acid receptor RXR-gamma by displacing 3.4 nM 3[H]-9-cis-RA
[8] = target: T2, Retinoic acid receptor beta; experiment: Binding affinity towards cRARbeta2 receptor by displacing 0.82 nM 3[H]all-trans-RA
[9] = target: T2, Retinoic acid receptor beta; experiment: Binding affinity towards cRAR-beta-2 receptor by displacing 1.1 nM 3[H]-9-cis-RA

Ki [1] | Ki [2] | Ki [3] | Ki [5] [nM] | Ki [6] [nM] | Ki [7] [nM] | Ki [8] [nM] | Ki [9] [nM] | Structure (SMILES) | Ki [4]
Not Active | Not Active | Not Active |  |  |  |  |  | CCOC(=O)[C@H]1C[C@@]1(C)/C=C/C=C(C)/C=C/C1=C(C)CCCC1(C)C | 
Not Active | Not Active | Not Active |  |  |  |  |  | CCOC(=O)[C@@H]1C[C@@]1(C)/C=C/C=C(C)/C=C/C1=C(C)CCCC1(C)C | 
 |  |  |  |  |  |  |  | C/C(=C\c1ccc(C(=O)O)cc1)c1ccc2c(c1)C(C)(C)CCC2(C)C | Not Active
 |  |  | > 4000 | > 4000 | > 2800 | > 1100 | > 1200 | CC(=C/C(=O)O)/C=C/C1CC1/C=C/C1=CC(C)(C)CCC1(C)C (stereo not drawn) | 
 |  |  | 32 | 3.1 | > 7200 | 11 | 13 | CC(/C=C/C1CC1/C=C/C1=CC(C)(C)CCC1(C)C)=C\C(=O)O (stereo not drawn) | 
 |  |  |  |  |  |  |  | CC1=C(/C=C/C(C)=C/C=C/C(C)=C/C(=O)O)C(C)(C)CCC1 [TRETINOIN] | Not Active
